Results as given in patent US6737383B1, “Herbicidal oxadiazolidines” (priority 1999, dated 2004).

Assays:
Green foxtail [1] = assay: Test D green foxtail; format: in vivo; conditions: Postemergence, 0 to 100 scale, 0 no injury, 100 complete control
pitted morningglory = assay: Test D pitted morningglory; format: in vivo, Ipomoea lacunosa; conditions: Postemergence, 0 to 100 scale
common pursiane = assay: Test D common purslane; format: in vivo, Portulaca oleracea; conditions: Postemergence, 0 to 100 scale
Johnson grass = assay: Test D Johnson grass; format: in vivo, Sorghum halepense; conditions: Postemergence, 0 to 100 scale
Green foxtail [2] = assay: Test D green foxtail; format: in vivo; conditions: Rate 250 g/ha; Postemergence; 0 to 100 scale
itchgrass = assay: Test D itchgrass; format: in vivo, Rottboellia exaltata; conditions: Postemergence, 0 to 100 scale
bermuda-grass = assay: Test D bermudagrass; format: in vivo, Cynodon dactylon; conditions: Postemergence, 0 to 100 scale
Green foxtail [3] = assay: Test D green foxtail; format: in vivo; conditions: Postemergence, 0 to 100 scale, 0 no injury, 100 complete control; remark: listed apart in the source
Spanishneedles = assay: Test D Spanishneedles; format: in vivo, Bidens bipinnata; conditions: Postemergence, 0 to 100 scale
goosegrass = assay: Test D goosegrass; format: in vivo, Eleusine indica; conditions: Postemergence, 0 to 100 scale
purple nutsedge = assay: Test D purple nutsedge; format: in vivo, Cyperus rotundus; conditions: Postemergence, 0 to 100 scale
Green foxtail [4] = assay: Test D green foxtail; format: in vivo; conditions: Rate 250 g/ha; Postemergence; 0 to 100 scale; remark: listed apart in the source
Alexandergrass = assay: Test D Alexandergrass; format: in vivo, Brachiaria plantaginea; conditions: Postemergence, 0 to 100 scale
surinam grass = assay: Test D surinam grass; format: in vivo, Brachiaria decumbens; conditions: Postemergence, 0 to 100 scale
Green foxtail [5] = assay: Test D green foxtail; format: in vivo; conditions: Postemergence, 0 to 100 scale, 0 no injury, 100 complete control; remark: listed apart in the source
sandbur = assay: Test D sandbur; format: in vivo, Cenchrus echinatus; conditions: Postemergence, 0 to 100 scale
Green foxtail [6] = assay: Test D green foxtail; format: in vivo; conditions: Postemergence, 0 to 100 scale, 0 no injury, 100 complete control; remark: listed apart in the source
[7] = Rate 16 g/ha, 0 no injury, 100 complete control
[8] = Rate 32 g/ha, 0 no injury, 100 complete control
[9] = Rate 64 g/ha, 0 no injury, 100 complete control
[10] = Rate 125 g/ha, 0 no injury, 100 complete control

CC(C)N(C(=O)n1oc(=O)n(CC2CCCO2)c1=O)c1ccc(F)cc1 (stereo not shown) [Compound 343]
90: Plant response rating, Goosegrass (goosegrass; [9]) | Plant response rating, Goosegrass (goosegrass; [10])
30: Plant response rating, Itchgrass (itchgrass; Rate 250 g/ha)
40: Plant response rating, Goosegrass (goosegrass; [7])
100: Green foxtail plant response rating (Green foxtail [1]; Rate 64 g/ha) | Green foxtail plant response rating (Green foxtail [1]; Rate 125 g/ha) | Plant response rating, Johnsongrass (Johnson grass; Rate 250 g/ha) | Plant response rating, Green foxtail (Green foxtail [2]) | Plant response rating, Bermudagrass (bermuda-grass; [10]) | Plant response rating, Bermudagrass (bermuda-grass; Rate 250 g/ha) | Plant response rating, Green foxtail (Green foxtail [3]; Rate 32 g/ha) | Plant response rating, Goosegrass (goosegrass; Rate 250 g/ha) | Plant response rating, Green foxtail (Green foxtail [4]) | Plant response rating, Alexandergrass (Alexandergrass; [10]) | Plant response rating, Alexandergrass (Alexandergrass; Rate 250 g/ha) | Plant response rating, Surinam grass (surinam grass; Rate 250 g/ha) | Plant response rating, Green foxtail (Green foxtail [5]; Rate 64 g/ha) | Plant response rating, Green foxtail (Green foxtail [5]; Rate 125 g/ha) | Plant response rating, Green foxtail (Green foxtail [6]; Rate 32 g/ha)
50: Plant response rating, Alexandergrass (Alexandergrass; [9]) | Sandbur plant response rating (sandbur; [10]) | Plant response rating, Sandbur (sandbur; Rate 250 g/ha)
80: Plant response rating, Bermudagrass (bermuda-grass; [8]) | Plant response rating, Goosegrass (goosegrass; [8])
20: Plant response rating, Johnsongrass (Johnson grass; [9]) | Plant response rating, Johnsongrass (Johnson grass; [10]) | Plant response rating, Itchgrass (itchgrass; [9]) | Plant response rating, Itchgrass (itchgrass; [10]) | Plant response rating, Spanishneedles (Spanishneedles; Rate 250 g/ha) | Plant response rating, Surinam grass (surinam grass; [8]) | Surinam grass plant response rating (surinam grass; [9])
70: Surinam grass plant response rating (surinam grass; [10])
60: Plant response rating, Bermudagrass (bermuda-grass; [9])
0: Plant response rating, P. morninglory (pitted morningglory; [7]) | Plant response rating, P. morninglory (pitted morningglory; [8]) | Plant response rating, P. morninglory (pitted morningglory; [9]) | Plant response rating, P. morninglory (pitted morningglory; [10]) | Plant response rating, P. morninglory (pitted morningglory; Rate 250 g/ha) | Plant response rating, C. purslane (common pursiane; [7]) | Plant response rating, C. purslane (common pursiane; [8]) | Plant response rating, C. purslane (common pursiane; [9]) | Plant response rating, C. purslane (common pursiane; [10]) | Plant response rating, C. purslane (common pursiane; Rate 250 g/ha) | Plant response rating, Johnsongrass (Johnson grass; [7]) | Plant response rating, Johnsongrass (Johnson grass; [8]) | Plant response rating, Itchgrass (itchgrass; [7]) | Plant response rating, Itchgrass (itchgrass; [8]) | Plant response rating, Bermudagrass (bermuda-grass; [7]) | Plant response rating, Green foxtail (Green foxtail [3]; Rate 16 g/ha) | Plant response rating, Spanishneedles (Spanishneedles; [7]) | Plant response rating, Spanishneedles (Spanishneedles; [8]) | Spanishneedles plant response rating (Spanishneedles; [9]) | Spanishneedles plant response rating (Spanishneedles; [10]) | Plant response rating, Purple nutsedge (purple nutsedge; [7]) | Plant response rating, Purple nutsedge (purple nutsedge; [8]) | Purple nutsedge plant response rating (purple nutsedge; [9]) | Purple nutsedge plant response rating (purple nutsedge; [10]) | Plant response rating, Purple nutsedge (purple nutsedge; Rate 250 g/ha) | Plant response rating, Alexandergrass (Alexandergrass; [7]) | Plant response rating, Alexandergrass (Alexandergrass; [8]) | Plant response rating, Surinam grass (surinam grass; [7]) | Plant response rating, Sandbur (sandbur; [7]) | Plant response rating, Sandbur (sandbur; [8]) | Sandbur plant response rating (sandbur; [9]) | Plant response rating, Green foxtail (Green foxtail [6]; Rate 16 g/ha)

COCC(C)n1c(=O)on(C(=O)N(c2ccc(F)cc2F)C(C)C)c1=O (stereo not shown) [Compound 357]
20: Plant response rating, Spanishneedles (Spanishneedles; Rate 250 g/ha) | Plant response rating, Alexandergrass (Alexandergrass; [8]) | Plant response rating, Surinam grass (surinam grass; [8])
90: Plant response rating, Johnsongrass (Johnson grass; Rate 250 g/ha) | Plant response rating, Bermudagrass (bermuda-grass; [7]) | Plant response rating, Goosegrass (goosegrass; [7])
0: Plant response rating, P. morninglory (pitted morningglory; [7]) | Plant response rating, P. morninglory (pitted morningglory; [8]) | Plant response rating, P. morninglory (pitted morningglory; [9]) | Plant response rating, P. morninglory (pitted morningglory; [10]) | Plant response rating, P. morninglory (pitted morningglory; Rate 250 g/ha) | Plant response rating, C. purslane (common pursiane; [7]) | Plant response rating, C. purslane (common pursiane; [8]) | Plant response rating, C. purslane (common pursiane; [9]) | Plant response rating, C. purslane (common pursiane; [10]) | Plant response rating, C. purslane (common pursiane; Rate 250 g/ha) | Plant response rating, Johnsongrass (Johnson grass; [7]) | Plant response rating, Johnsongrass (Johnson grass; [8]) | Plant response rating, Johnsongrass (Johnson grass; [9]) | Plant response rating, Itchgrass (itchgrass; [7]) | Plant response rating, Itchgrass (itchgrass; [8]) | Plant response rating, Itchgrass (itchgrass; [9]) | Plant response rating, Purple nutsedge (purple nutsedge; [7]) | Plant response rating, Purple nutsedge (purple nutsedge; [8]) | Purple nutsedge plant response rating (purple nutsedge; [9]) | Purple nutsedge plant response rating (purple nutsedge; [10]) | Plant response rating, Alexandergrass (Alexandergrass; [7]) | Plant response rating, Surinam grass (surinam grass; [7]) | Plant response rating, Sandbur (sandbur; [7]) | Plant response rating, Sandbur (sandbur; [8]) | Sandbur plant response rating (sandbur; [9]) | Sandbur plant response rating (sandbur; [10])
30: Plant response rating, Itchgrass (itchgrass; [10]) | Plant response rating, Green foxtail (Green foxtail [3]; Rate 32 g/ha) | Plant response rating, Green foxtail (Green foxtail [6]; Rate 32 g/ha)
50: Plant response rating, Itchgrass (itchgrass; Rate 250 g/ha) | Plant response rating, Purple nutsedge (purple nutsedge; Rate 250 g/ha)
100: Green foxtail plant response rating (Green foxtail [1]; Rate 64 g/ha) | Green foxtail plant response rating (Green foxtail [1]; Rate 125 g/ha) | Plant response rating, Green foxtail (Green foxtail [2]) | Plant response rating, Bermudagrass (bermuda-grass; [8]) | Plant response rating, Bermudagrass (bermuda-grass; [9]) | Plant response rating, Bermudagrass (bermuda-grass; [10]) | Plant response rating, Bermudagrass (bermuda-grass; Rate 250 g/ha) | Plant response rating, Goosegrass (goosegrass; [8]) | Plant response rating, Goosegrass (goosegrass; [9]) | Plant response rating, Goosegrass (goosegrass; [10]) | Plant response rating, Goosegrass (goosegrass; Rate 250 g/ha) | Plant response rating, Green foxtail (Green foxtail [4]) | Plant response rating, Alexandergrass (Alexandergrass; [9]) | Plant response rating, Alexandergrass (Alexandergrass; [10]) | Plant response rating, Alexandergrass (Alexandergrass; Rate 250 g/ha) | Surinam grass plant response rating (surinam grass; [10]) | Plant response rating, Surinam grass (surinam grass; Rate 250 g/ha) | Plant response rating, Green foxtail (Green foxtail [5]; Rate 64 g/ha) | Plant response rating, Green foxtail (Green foxtail [5]; Rate 125 g/ha) | Plant response rating, Sandbur (sandbur; Rate 250 g/ha)
10: Plant response rating, Green foxtail (Green foxtail [3]; Rate 16 g/ha) | Plant response rating, Spanishneedles (Spanishneedles; [7]) | Plant response rating, Spanishneedles (Spanishneedles; [8]) | Spanishneedles plant response rating (Spanishneedles; [9]) | Spanishneedles plant response rating (Spanishneedles; [10]) | Plant response rating, Green foxtail (Green foxtail [6]; Rate 16 g/ha)
80: Surinam grass plant response rating (surinam grass; [9])
60: Plant response rating, Johnsongrass (Johnson grass; [10])
